# Entries after “also recorded” stand apart in the source; their conditions may differ. Like-named read-outs stand apart in the source and are kept apart here.
# B1: NGF: nerve growth factor (NGF, Collaborative Research) (protein, UniProt P01139 122-241, looked up)
# Beta-nerve growth factor: SSTHPVFHMGEFSVCDSVSVWVGDKTTATDIKGKEVTVLAEVNINNSVFRQYFFETKCRASNPVESGCRGIDSKHWNSYCTTTHTFVKALTTDEKQAAWRFIRIDTACVCVLSRKATRRG
# modifications: Beta-nerve growth factor
# Tests used:
# [1] = test system: NG-108 cells; assay: Effect of odorant on cyclic AMP levels in NG-108 cells (RIA); type: cell-based; details: for activity at 10 µM: 10 uM IBMP, ± SEM, read-out: cAMP
# Description: (§1) After 5-7 days in primary culture, olfactory neuronal cells were exposed to odorants and cyclic AMP levels assayed. To avoid transient changes in intracellular cyclic AMP levels caused by feeding, the medium was changed to 0.5 ml of MEM-AIR containing 0.1% (w/v) RIA-grade BSA 2-3 hr before use. At zero-time, cultures received an additional 0.5 ml of MEM-AIR with or without 10 uM 2-isobutyl-3-methoxypyrazine (IBMP). At various times thereafter the entire medium was aspirated and the reaction quenched by addition of 6% in cold TCA. Cellular extracts were processed and RIA for cyclic AMP was performed as described below.
# (§2) Primary cultures of olfactory neurons were plated in laminin-treated 24-well cluster dishes at a density of 1×10^6 cells per cm^2. Cells were used between days 5-7 in culture. Thirty min before experimentation, monolayers were fed wtih MEM-AIR containing 0.1% (w/v) RIA grade BSA. Immediately prior to use, odorants were diluted from a 50 mM stock in absolute ethanol to 10 uM. At zero time, 0.5 ml of MEM-AIR containing 0.1% RIA grade BSA and odorant at twice the final concentration was added to wells.
# (§3) The experiment was terminated by aspiration of culture medium and addition of 200 ul of 6% (w/v) trichloroacetic acid (TCA) at 0° C. Culture wells were heated to 56° C. in an oven for 1 hr, scraped, sonicated, chilled, and microfuged for 30 sec. The supernatants were extracted 4 times with 5 volumes of ether, and the ether-extracted water phase was lyophilized to dryness. Samples were resuspended in 200 ul of RIA-NEN buffer (NEN/DuPont, Boston, Mass.) and RIA assay was performed according to specifications of the cyclic AMP kit.
# 1 NG-108 cells (a generous gift from Dr. Karen Braas, University of Vermont, Burlington, Vt.) were grown and maintained as previously described (Braas, Childers and U'Prichard, 1983). For experimentation, cells were plated in 24-well clustered dishes and treated similarly to olfactory neurons. NG-108 cells are hybrid cells of a globlastoma and a non-olfactory neural-like cell. NG-108 is a continuous cell line.
# [2] = test system: adenylyl cyclase; assay: Adenylyl cyclase augmentation in olfactory neuronal cultures by odorants; type: cell-based
# From the text: The cells of the olfactory epithelium from which the neuronal cells have been purified are mainly the sustentacular cells and the basal cells. These cells can be distinguished on the basis of morphology, marker proteins, and lack of excitability.
# [3] = test system: Primary olfactory neurons; assay: Effect of odorant on cyclic AMP levels in primary olfactory neuron cultures (RIA); type: cell-based, rat; details: for activity at 10 µM: Rattus norvegicus, Neuron, 10 uM IBMP, ± SEM, read-out: cAMP
# Description: as §1, §2, §3
# [4] = test system: olfactory neurons; assay: Evaluation of substrate matrix substances for plating efficiency and morphology of olfactory neurons; type: cell-based, rat; details: for plating efficiency (in words) / process / neurite outgrowth (in words): culture surface coated with the substance
# Description: Two chamber slides were pretreated in a number of ways, For laminin coating, 1 ml of MDV containing 25 ug/ml laminin was plated onto glass two-chamber slides overnight at 37° C.; before use, the slides were rinsed with MDV. For fibronectin, slides were treated with a solution containing 1 ml of MDV containing 20 ug/ml fibronectin (Collaborative Research), incubated overnight at 37° C. and rinsed with MDV prior to use. For polyornithine (PORN, Sigma Chemicals), a solution of a concentration of 1 mg/ml PORN in deionized distilled water was added to slides, incubated 1 hr at 37° C., rinsed twice with deionized distilled water, and rinsed once with MDV prior to use. When laminin was used on PORN-treated slides, slides were treated with PORN and then laminin in the usual manner. Coating of slides with poly-D-lysine was performed analogous to treatment with polyornithine. Heparan sulfate was diluted in MDV to a concentration of 10 ug/ml and 1 ml was placed on a slide, maintained overnight at 37° C., and rinsed with deionized distilled water prior to use. Collagen (Gibco) or collage IV (Collaborative Research) was prepared as a 50 ug/ml solution in deionized distilled water and 1 ml of this solution utilized per slide. In the case of collagen, the solution was allowed to air dry. Collage IV was maintained overnight at room temperature, aspirated, air dried and then rinsed twice with deionized distilled water prior to use. When laminin was used with collagen IV, collage IV was prepared as described, and laminin was subsequently added in the usual manner. Matrigel (Collaborative Research) was utilized according to manufacturer's instructions.
# Primary cultures were prepared as described above and plated onto a number of different substrates and examined by phase contrast as well as immunofluorescence with antivimentin antisera (FIG. 6).
# Matrigel was also examined as a substrate (FIG. 7).
# [5] = test system: olfactory neurons; assay: Effect of NGF on olfactory neuronal survival and neurite extension; type: cell-based, rat
# [6] = read-out: concentration eliciting comparable levels of excitation (50% of maximal adenylyl cyclase augmentation)
molecule,measurement,setting,value
"COc1nccnc1CC(C)C [IBMP, 2-isobutyl-3-methoxypyrazine]",activity at 10 µM,"[1]; NG-108, 0.5 min, time 0.5 min",103 ± 19%
same,activity at 10 µM,"[1]; NG-108, 1 min, time 1.0 min",94 ± 32%
same,activity at 10 µM,"[1]; NG-108, 5 min, time 5.0 min",99 ± 16%
same,activity at 10 µM,"[1]; NG-108, 0.25 h, time 15 min",70 ± 41%
same,change of cyclic AMP levels (in words),"[1]; NG-108 cells, similar treatment",does not alter cyclic AMP levels
same,EC50,[2]; read-out: concentration stimulating to 50% of maximal adenylyl cyclase augmentation,1 nM
same,activity at 10 µM,[3]; 0.5 min,350 ± 160%
same,activity at 10 µM,[3]; 1 min,250 ± 92%
same,activity at 10 µM,[3]; 5 min,270 ± 113%
same,activity at 10 µM,"[3]; 0.25 h, time 15 min",175 ± 47%
same,maximum increase in intracellular cyclic AMP over control levels,[3]; olfactory neurons,approximately three
same,rise in intracellular cyclic AMP levels (in words),[3]; olfactory neurons,"rapid, transient rise in intracellular cyclic AMP levels"
CC(C)=CCCC(C)=CC#N [citralva],EC50,[2]; [6],1000 to 10000 nM
CC(C)CC(=O)O [isovaleric acid],EC50,[2]; [6],1000 to 10000 nM
collagen,plating efficiency (in words),[4],"somewhat better plating efficiency than poly-D-lysine, polyornithine or heparan-sulfate"
same,process / neurite outgrowth (in words),[4],process outgrowth is still stunted
fibronectin,process / neurite outgrowth (in words),[4],processes are shorter
laminin,plating efficiency (in words),[4],optimal plating efficiency
same,process / neurite outgrowth (in words),[4],cells extend neurites in a random fashion
same,aggregation of cells (in words),"[4]; duplicate suspensions, laminin vs matrigel, FIG. 7",no tendency to reaggregate
B1,survival and neurite extension (in words),[5]; NGF 25 ng/ml,necessary for survival of olfactory neurons; also recorded: affects both olfactory neuronal survival and neurite extension in culture
same,process extension without NGF (in words),"[5]; by 3 days in culture, without NGF",lose process extension
same,decrease of cell viability without NGF,"[5]; by 3 days in culture, without vs with 25 ng/ml NGF",approximately 85%

# Source: US5308763A, “Method of making primary culture of olfactory neurons” (The Johns Hopkins University, priority 1992, dated 1994)
